Here are results for one compound from US20260284074A1, “ENT1 Inhibitors in Combination with Checkpoint Inhibitors” (iTeos Belgium SA, priority 2023, published 2026).

In this test the test system is TNF, IFNγ, and granzyme B. The experiment in a line: Cytokine levels in supernatants of dissociated human tumor cell cultures with ATP. The test is classed as cell-based. Conditions: 500 μM ATP; Compound 1 300 nM; culture supernatants. The protocol: Human tumors were dissociated, and cells were CFSE-labelled and stimulated with CD3/CD28 microbeads and IL-2 in the presence of 500 μM of ATP as a source of adenosine.
Human tumor pieces were rinsed with cold PBS and cut into 1 to 2 mm fragments with a scalpel blade and transferred into GentleMACS C tubes. Dissociation of the tissue was completed with the Tumor Dissociation kit (Miltenyi Biotec) according to the manufacturer's instruction. Briefly, 5 mL of dissociation solution—containing 200 μL of enzyme H, 20 μL of enzyme R and 25 μL of enzyme A and RPMI until 5 mL—was added per gram of tumor. The tube was placed in the gentleMACS dissociator and the 1st program was run. An incubation step of 30 minutes at 37° C. was applied with rotation (MACSmix tube rotator). After this incubation, a quick centrifugation (30×rcf, 1 min) was performed, the supernatant containing dissociated cells was collected in a new tube containing FBS (30% of the total volume with supernatant) and placed at 4° C. […] A short centrifugation was performed, the cells in supernatant were pooled with the 1st collection and filtered through a 100 μm cell strainer which was washed with 10 mL RPMI 10% FBS 2% P/S. After centrifugation at 350×rcf for 10 min, cells were resuspended in 20 mL RPMI 10% FBS 2% P/S and counted with a haemocytometer. […]

As for `COc1cc(C(=O)O[C@@H]2CCCOc3cc(cc(OC)c3OC)C(=O)NCCCN3CCCN(CC2)CC3)cc(OC)c1OC` [Compound 1, (12R)-7^4,7^5-dimethoxy-6-oxo-8-oxa-5-aza-1(1,4)-diazepana-7(1,3)-benzenacyclotetradecaphane-12-yl 3,4,5-trimethoxybenzoate], the “Production of TNF, IFNγ, and granzyme B suppressed by ATP” value is “restored, to varying extents”.
